Measured values reported in PMC9916762, “Impact of Hydrophobic Chains in Five-Coordinate Glucoconjugate Pt(II) Anticancer Agents” (International Journal of Molecular Sciences, 2023).

Tests used:
[1] = tested on: murine fibroblast BALB/c-3T3 transformed with the SV40 virus (SVT2); experiment: MTT cell viability assay, SVT2; assay type: cell-based
Excerpt: (§1) The immortalized human keratinocytes (HaCaT) were from Innoprot.

SVT2 cells = experiment: Cellular Pt uptake by ICP-MS, SVT2; assay type: cell-based, murine; conditions: SVT2, 9.8 μM (IC50), 48 h, mean ± S.E.
Procedure: In particular, SVT2 and A431 were incubated for 48 h with 1-Me,Me and 1-Oct,Me, using the IC50 value concentrations. At the end of incubation, uptake and cell death mechanisms were evaluated. […] Finally, apoptosis was investigated by Western blot analyses using specific antibodies against pro-caspases 9 and 3.
To study the uptake of the complexes, SVT2 and A431 were incubated for 48 h in the presence of 1-Me,Me and 1-Oct,Me, respectively, at their IC50 concentrations. At the end of incubation, Pt determination was performed by inductively coupled plasma mass spectrometry (ICP-MS, Aurora M90; Bruker, Ettlingen/Leipzig, Germany) in the “Normal Sensitivity” mode. Calibration curves for the quantification of Pt ranged from 0.1 to 100 μg/L and were constructed daily by the analysis of the standard solutions prepared immediately before analysis. All standards used for analysis were prepared in HNO3 solution (2%, v/v). The internal standards were ^89Y and ^115In in both the calibration curve and sample analyses. The linearity was acceptable with an R^2 value greater than 0.9996. The treatment of the cells involved a wet digestion: after centrifugation, cell samples were wet digested with 1 mL of ultrapure HNO3 (67–69%, v/v). The mixture was gently boiled over a water bath (90 °C) for 3 h until a clear solution was obtained. […]

[2] = tested on: human epidermoid carcinoma cells (A431); experiment: MTT cell viability assay, A431; assay type: cell-based
Excerpt: as §1

[3] = In-solution stability in DMSO (1H NMR, UV-vis); assay type: physicochemical; conditions: 50 μM in DMSO, 25 °C, up to 7 days
Procedure: The stability of the complexes in DMSO-d6, the solvent used to prepare stock solutions for biological experiments, was evaluated by recording their UV–vis absorptions and ^1H-NMR spectra over time.
UV–vis absorption spectra of 1-Me,Me were recorded in DMSO for 5 h and then after 24 h and 7 days (Figure 5). […] In fact, the λmax experienced a blue shift from 278 to 269 nm, giving rise to an isosbestic point at 275 nm. In addition, a decrease in the absorbance of the shoulder at 300 nm is observed, together with an absorbance increase in the shoulder at 260 nm. […] It is highly probable that a slow release of ethene and dmphen can occur. This would lead to the formation of the square planar species of type 4-R,R’, as reported in Scheme 3.
In all cases, no cleavage of the Pt–carbene bond was detected. Figure 6 reports the ^1H NMR spectra of 1-Me,Oct after dissolution, 1.5, 5, and 24 h.
The stability of the 1-R,R’ complexes in DMSO was studied by dissolving 5 mg of each complex in 250 μL of DMSO-d6 and then diluting 200 μL of this solution with 300 μL of DMSO-d6. The stability of the 1-R,R’ complexes in aqueous solvents was studied by dissolving 5 mg of each complex in 250 μL of DMSO-d6 and then diluting 50 μL of this solution with 500 μL of D2O. The ^1H-NMR spectra of the resulting solutions were recorded over time. […]

[4] = In-solution stability in aqueous solvents (1H NMR, UV-vis); assay type: physicochemical
Excerpt: Attempts to evaluate their stability in aqueous solutions were complicated due the poor solubility of the complexes in water. Only for 1-Me,Me was it possible to prepare a solution in the mixed solvent D2O:DMSO-d6 10:1. […] To further study the stability of 1-Me,Me in aqueous solvents, UV–vis absorption spectra over time were collected under the two experimental conditions (20% ethylene glycol, 0.1 M sodium acetate buffer at pH 4.0 and 0.6 M sodium nitrate and 2.0 M sodium formate, 0.1 M Hepes buffer at pH 7.5), used to obtain crystals of the adducts with the model protein hen egg white lysozyme (HEWL). HEWL has been used as a model system to study the interaction with proteins of several metallodrugs, including cisplatin [31, 32, 33], oxaliplatin [34, 35], and carboplatin [31, 32]. […] Over time, a red shift of the λmax from 275 to 278 nm and of the peak at 313 nm, which shifted up to 317 nm, was observed. […] Such results convinced us that five-coordinate compounds are the species administered to cells if DMSO stock solutions are immediately diluted in an aqueous medium.
The stability of the 1-R,R’ complexes in DMSO was studied by dissolving 5 mg of each complex in 250 μL of DMSO-d6 and then diluting 200 μL of this solution with 300 μL of DMSO-d6. […] The ^1H-NMR spectra of the resulting solutions were recorded over time. […]

## Platinum(1+), (2,9-dimethyl-1,10-phenanthroline- N1,N10)(η2-ethene)methyl[1,3-dihydro-1,3-dimethyl-4-[1-[2,3,4,6-tetrakis-O-(acetyl)-β-D-glucopyranosyl]-1H-1,2,3-triazol-4-yl]-2H-imidazol-2-ylidene], 1,1,1-trifluoromethanesulfonate [1-Me,Me]
[1]; 48 h incubation, MTT
  IC50: 9.8 ± 0.3 µM
[1]; ratio IC50 BALB-c/3T3 / IC50 SVT2
  SI (selectivity index): 2.65
SVT2 cells
  Pt uptake: 0.772 ± 0.010 Pt ng/10^6 cells
[2]; 48 h incubation, MTT
  IC50: 20 ± 2 µM
[2]; ratio IC50 HaCaT / IC50 A431
  SI (selectivity index): 0.42
[3]
  stability, UV-vis spectra over time: poor stability
[4]; 50 μM, 2.0 M sodium formate, 0.1 M Hepes buffer pH 7.5
  stability, UV-vis spectra over time: stable over time
[4]; D2O:DMSO-d6 10:1, after 24 h
  stability, NMR spectra over time: no appreciable changes
